# According to PubChem BioAssay AID2060487 (Molecular Pharmacology Branch, DTP, NCI, 2025):
# Tested on: 997537-175-T-J1-PDC complex spheroid viability
# Test: Anticancer human tumor 997537-175-T-J1-PDC patient-derived colon adenocarcinoma cell line growth inhibition [GQUAD]
# Details: for IC50: curve of first compound; for viability, T/C: stronger effect = lower value
# In short: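 Viability of tumor cells grown as complex spheroids with endothelial and stromal cells, exposed to drug combinations. Top concentration at or near clinical Cmax (else 10 microM), diluted in half-log increments.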
# [1] = second compound 0.0316 µM, first compound 0.0316 µM
# [2] = second compound 0.0316 µM, first compound 0.316 µM
# [3] = second compound 0.1 µM, first compound 0.0316 µM
# [4] = second compound 0.1 µM, first compound 0.316 µM
# [5] = second compound 0.316 µM, first compound 0.0316 µM
# [6] = second compound 0.316 µM, first compound 0.316 µM
# [7] = second compound 1 µM, first compound 0.0316 µM
# [8] = second compound 1 µM, first compound 0.316 µM
# [9] = second compound 3.16 µM, first compound 0.0316 µM
# [10] = second compound 3.16 µM, first compound 0.316 µM
# [11] = second compound 10 µM, first compound 0.0316 µM
# [12] = second compound 10 µM, first compound 0.316 µM
# 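Further: spheroids exposed to the agents for 7 days.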
# 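Wherever viability, T/C is given: 100% = DMSO vehicle control viability.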
compound,measurement,setting,value
COc1cc(C2c3cc4c(cc3C(OC3OC5COC(C)OC5C(O)C3O)C3COC(=O)C23)OCO4)cc(OC)c1O (centres undefined) + CN(C)c1ccc(Nc2c3ccc(NC(=O)CCN4CCCC4)cc3nc3cc(NC(=O)CCN4CCCC4)ccc23)cc1,IC50,second compound 0.0316 µM,> 10000 nM
same,IC50,second compound 0.1 µM,> 10000 nM
same,IC50,second compound 0.316 µM,> 10000 nM
same,IC50,second compound 1 µM,> 10000 nM
same,IC50,second compound 3.16 µM,> 10000 nM
same,IC50,second compound 10 µM,> 10000 nM
same,"viability, T/C",[1],93.8%
same,"viability, T/C","second compound 0.0316 µM, first compound 0.1 µM",105%
same,"viability, T/C",[2],96.5%
same,"viability, T/C","second compound 0.0316 µM, first compound 1 µM",78.6%
same,"viability, T/C","second compound 0.0316 µM, first compound 3.16 µM",74.1%
same,"viability, T/C","second compound 0.0316 µM, first compound 10 µM",74.7%
same,"viability, T/C",[3],113%
same,"viability, T/C","second compound 0.1 µM, first compound 0.1 µM",105%
same,"viability, T/C",[4],101%
same,"viability, T/C","second compound 0.1 µM, first compound 1 µM",81.2%
same,"viability, T/C","second compound 0.1 µM, first compound 3.16 µM",95.2%
same,"viability, T/C","second compound 0.1 µM, first compound 10 µM",65.7%
same,"viability, T/C",[5],97.2%
same,"viability, T/C","second compound 0.316 µM, first compound 0.1 µM",96.6%
same,"viability, T/C",[6],91.4%
same,"viability, T/C","second compound 0.316 µM, first compound 1 µM",87.1%
same,"viability, T/C","second compound 0.316 µM, first compound 3.16 µM",92.3%
same,"viability, T/C","second compound 0.316 µM, first compound 10 µM",64.8%
same,"viability, T/C",[7],89.1%
same,"viability, T/C","second compound 1 µM, first compound 0.1 µM",110%
same,"viability, T/C",[8],90.2%
same,"viability, T/C","second compound 1 µM, first compound 1 µM",75.1%
same,"viability, T/C","second compound 1 µM, first compound 3.16 µM",91.2%
same,"viability, T/C","second compound 1 µM, first compound 10 µM",55.2%
same,"viability, T/C",[9],78.7%
same,"viability, T/C","second compound 3.16 µM, first compound 0.1 µM",102%
same,"viability, T/C",[10],76.7%
same,"viability, T/C","second compound 3.16 µM, first compound 1 µM",95.2%
same,"viability, T/C","second compound 3.16 µM, first compound 3.16 µM",83.2%
same,"viability, T/C","second compound 3.16 µM, first compound 10 µM",72.3%
same,"viability, T/C",[11],79.7%
same,"viability, T/C","second compound 10 µM, first compound 0.1 µM",108%
same,"viability, T/C",[12],99.9%
same,"viability, T/C","second compound 10 µM, first compound 1 µM",87.2%
same,"viability, T/C","second compound 10 µM, first compound 3.16 µM",89.8%
same,"viability, T/C","second compound 10 µM, first compound 10 µM",67.4%
CCc1c2c(nc3ccc(O)cc13)-c1cc3c(c(=O)n1C2)COC(=O)[C@]3(O)CC + CN(C)c1ccc(Nc2c3ccc(NC(=O)CCN4CCCC4)cc3nc3cc(NC(=O)CCN4CCCC4)ccc23)cc1,IC50,second compound 0.0316 µM,13.8 nM
same,IC50,second compound 0.1 µM,10.3 nM
same,IC50,second compound 0.316 µM,10.2 nM
same,IC50,second compound 1 µM,15.7 nM
same,IC50,second compound 3.16 µM,15.8 nM
same,IC50,second compound 10 µM,21.3 nM
same,"viability, T/C","second compound 0.0316 µM, first compound 0.000999 µM",97.8%
same,"viability, T/C","second compound 0.0316 µM, first compound 0.00316 µM",84.2%
same,"viability, T/C","second compound 0.0316 µM, first compound 0.00999 µM",58.6%
same,"viability, T/C",[1],29.5%
same,"viability, T/C","second compound 0.0316 µM, first compound 0.0999 µM",6.84%
same,"viability, T/C",[2],4.15%
same,"viability, T/C","second compound 0.1 µM, first compound 0.000999 µM",104%
same,"viability, T/C","second compound 0.1 µM, first compound 0.00316 µM",83.4%
same,"viability, T/C","second compound 0.1 µM, first compound 0.00999 µM",50.6%
same,"viability, T/C",[3],22.9%
same,"viability, T/C","second compound 0.1 µM, first compound 0.0999 µM",9.03%
same,"viability, T/C",[4],4.26%
same,"viability, T/C","second compound 0.316 µM, first compound 0.000999 µM",97%
same,"viability, T/C","second compound 0.316 µM, first compound 0.00316 µM",78.4%
same,"viability, T/C","second compound 0.316 µM, first compound 0.00999 µM",51.6%
same,"viability, T/C",[5],22.6%
same,"viability, T/C","second compound 0.316 µM, first compound 0.0999 µM",8.39%
same,"viability, T/C",[6],4.2%
same,"viability, T/C","second compound 1 µM, first compound 0.000999 µM",77.5%
same,"viability, T/C","second compound 1 µM, first compound 0.00316 µM",58.7%
same,"viability, T/C","second compound 1 µM, first compound 0.00999 µM",67.6%
same,"viability, T/C",[7],23.9%
same,"viability, T/C","second compound 1 µM, first compound 0.0999 µM",11.6%
same,"viability, T/C",[8],3.86%
same,"viability, T/C","second compound 3.16 µM, first compound 0.000999 µM",75%
same,"viability, T/C","second compound 3.16 µM, first compound 0.00316 µM",85%
same,"viability, T/C","second compound 3.16 µM, first compound 0.00999 µM",57.8%
same,"viability, T/C",[9],33.8%
same,"viability, T/C","second compound 3.16 µM, first compound 0.0999 µM",9.84%
same,"viability, T/C",[10],4.51%
same,"viability, T/C","second compound 10 µM, first compound 0.000999 µM",83.9%
same,"viability, T/C","second compound 10 µM, first compound 0.00316 µM",84%
same,"viability, T/C","second compound 10 µM, first compound 0.00999 µM",80.4%
same,"viability, T/C",[11],34.2%
same,"viability, T/C","second compound 10 µM, first compound 0.0999 µM",11.7%
same,"viability, T/C",[12],4.48%
